Laboratory results as given in patent US20090209525A1, “ENABLING METHODS TO IDENTIFY ALLOSTERIC MODULATORS OF RECEPTOR ACTIVITY” (priority 2006, published 2009).
Numbering of substitutions follows the chain as printed. Values joined by “and” are separate entries in the source; they are usually repeats but may differ in a detail not shown here. Identical values can stand only once. Like-named read-outs stand apart in the source and are kept apart here.

Legend:
[1] = target: T1, rat M1 W101A receptor (Rattus norvegicus, UniProt P08482, W101A); assay: R-SAT functional assay, W101A mutant; assay type: cell-based; conditions: for increase in potency relative to wild-type: R-SAT; for Shift: EC50 W101A divided by EC50 wild-type; for Eff (%): maximum response, normalized; for EC50: read-out: pEC50 (converted)
T1 construct: expressed in transfected cells
T1 sequence (P08482 1-460 W101A): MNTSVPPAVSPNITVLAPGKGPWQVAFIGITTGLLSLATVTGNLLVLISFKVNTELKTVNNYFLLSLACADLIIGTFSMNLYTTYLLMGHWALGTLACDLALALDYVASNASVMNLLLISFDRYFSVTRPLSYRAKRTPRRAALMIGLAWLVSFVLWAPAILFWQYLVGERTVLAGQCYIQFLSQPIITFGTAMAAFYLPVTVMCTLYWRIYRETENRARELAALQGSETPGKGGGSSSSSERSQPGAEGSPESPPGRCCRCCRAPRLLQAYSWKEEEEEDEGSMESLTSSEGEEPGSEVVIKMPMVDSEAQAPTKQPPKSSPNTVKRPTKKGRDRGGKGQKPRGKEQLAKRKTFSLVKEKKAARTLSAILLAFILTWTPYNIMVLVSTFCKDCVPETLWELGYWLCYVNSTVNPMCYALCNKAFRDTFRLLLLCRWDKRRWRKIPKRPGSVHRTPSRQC
Method: (§1) Cells are co-transfected for 18 h with DMEM containing 0.08 micrograms/ml of an expression vector for the expression of the mutant receptor and 0.3 micrograms/ml pSI-Bgal (Promega, Madison Wis.), and 0.5% v/v Polyfect (Qiagen, Valencia Calif.), as recommended by the manufacturer. On day three, the medium is replaced with DMEM containing 1% PSG, 0.5% calf serum, 2% cyto-sf3 (Kemp Biotechnologies, Frederick, Md.), and varying concentrations of the compounds to be tested. Cells are grown in a humidified atmosphere with 5% ambient CO2 for 5 days. The media is removed from the plates, and beta-galactosidase activity is measured by the addition of o-nitrophenyl -d-galactopyranoside in phosphate-buffered saline with 5% Nonidet P-40. […] The following equation is fitted to the data using GraphPad Prism software (San Diego, Calif.):
(§2) NIH-3T3 cells were grown in 96-well tissue culture plates to 70 to 80% confluence in Dulbecco's modified essential media (DMEM) supplemented with 100 units/ml penicillin, 100 micrograms/ml streptomycin, 0.3 mg/ml L-glutamine (1% PSG, GIBCO) and 10% calf serum (Sigma-Aldrich). Cells were transfected for 18 h with DMEM containing 0.08 micrograms/ml receptor DNA and 0.3 micrograms/ml pSI-Bgal (Promega, Madison Wis.), 0.5% v/v Polyfect (Qiagen, Valencia Calif.). Medium was replaced with DMEM containing 1% PSG, 0.5% calf serum, 2% cyto-sf3 (Kemp Biotechnologies, Frederick, Md.), and varying concentrations of ligand. […] Cells were grown in a humidified atmosphere with 5% ambient CO2 for 5 days. Medium was removed from the plates, and beta-galactosidase activity was measured by the addition of o-nitrophenyl -d-galactopyranoside in phosphate-buffered saline with 5% Nonidet P-40.
Receptor Selection and Amplification (R-SAT™) Assays: R-SAT™ functional assays were carried out as follows. NIH-3T3 cells were grown in 96-well tissue culture plates to 70 to 80% confluence in Dulbecco's modified essential media (DMEM) supplemented with 100 units/ml penicillin, 100 micrograms/ml streptomycin, 0.3 mg/ml L-glutamine (1% PSG, GIBCO) and 10% calf serum (Sigma-Aldrich). Cells were transfected for 18 h with DMEM containing 0.08 micrograms/ml receptor DNA and 0.3 micrograms/ml pSI-Bgal (Promega, Madison Wis.), 0.5% v/v Polyfect (Qiagen, Valencia Calif.). The transfected cells were frozen away. Cells were thawed and added to 96 well plates with DMEM containing 1% PSG, 0.5% calf serum, 2% cyto-sf3 (Kemp Biotechnologies, Frederick, Md.), and varying concentrations of ligand.
In an effort to further characterize monoamine modulators, we used a panel of mutant muscarininc M1 receptors to analyze the activity and potency of orthosteric modulators and various allosteric modulators at those receptors.

[2] = target: T2, rat M1 S109A receptor (Rattus norvegicus, UniProt P08482, S109A); assay: R-SAT functional assay, S109A mutant; assay type: cell-based; conditions: Table 3; for Shift: EC50 S109A divided by EC50 wild-type; for EC50 / Eff (%): S109A; for Eff (%): maximum response, normalized
T2 construct: expressed in transfected cells
T2 sequence (P08482 1-460 S109A): T1 sequence (P08482 1-460 W101A) with A101W, S109A
Method: as §1, §2

[3] = Table 4, M1 W101A, maximum response relative to xanomeline
[4] = Table 10, M1 W101A, maximum response relative to AC-42

Shift ([1]; Table 3)	Eff (%) ([1]; Table 3, W101A)	EC50 ([1]; Table 3, W101A) [nM]	% Eff [1, 3] [%]	EC50 ([1]; Table 4, M1 W101A) [nM]	% Eff [1, 4] [%]	EC50 ([1]; Table 10, M1 W101A) [nM]	Shift [2]	EC50 [2] [nM]	Eff (%) [2] [%]	Compound	increase in potency relative to wild-type ([1]; W101A)
0.03	100 ± 8	0.398	98	0.2	140	3.16	1	15.8	104 ± 12	CCCCC1CCN(CCCN2C(=O)COc3cc(F)ccc32)CC1 [AC-260584, 4-[3-(4-Butyl-piperidin-1-yl)-propyl]-7-fluoro-4H-benzo [1,4]oxazin-3-one]	33 fold and 30 fold
5	88 ± 12	200	72	39.8	93	100	2	100	68 ± 9	Clc1ccc2c(c1)N=C(N1CCNCC1)c1ccccc1N2 [NDMC, 8-chloro-11-(1-piperazinyl)-5H-dibenzo [b,e] [1,4] diazepine]	–

Compound	Shift ([1]; Table 3)	Eff (%) ([1]; Table 3, W101A)	EC50 ([1]; Table 3, W101A) [nM]	% Eff [1, 3] [%]	EC50 ([1]; Table 4, M1 W101A) [nM]	% Eff [1, 4] [%]	EC50 ([1]; Table 10, M1 W101A) [nM]	Shift [2]	EC50 [2] [nM]	Eff (%) [2] [%]	increase in potency relative to wild-type ([1]; W101A)
CCCCC1CCN(CCCC(=O)c2ccccc2C)CC1 [AC-42, 4-n-butyl-1-[4-(2-methylphenyl)-4-oxo-1-butyl] piperidine hydrogen chloride]	0.02	95 ± 10	3.16	97	7.94	111	7.94	1	158	59 ± 5	50 fold
